Where two headings read alike, the source gives them in different places. Each block holds one compound with its values, some of them ahead of it. Square brackets hold non-standard residues; d marks the D form. Peptide text beside a SMILES is read from it. * marks the point of attachment. Tyr(3-NO2) = N[CH](Cc1ccc(O)c([N+](=O)[O-])c1)C(=O)O; Boc = CC(C)(C)OC(=O)*
Experiments:
[1] = molecular target: T1, rat recombinant neurolysin (Rattus norvegicus, UniProt P42676); assay: Enzymatic assay: QFS hydrolysis by rat recombinant neurolysin; format: biochemical; conditions: QFS 25 μM, compared to vehicle control; for % activity at 10: 10 μM compound; for % activity at (100): 100 μM compound
T1 construct: polyhistidine (N); made in house; host or cells: Escherichia coli (pBAD/His vector)
T1 sequence (P42676 38-704): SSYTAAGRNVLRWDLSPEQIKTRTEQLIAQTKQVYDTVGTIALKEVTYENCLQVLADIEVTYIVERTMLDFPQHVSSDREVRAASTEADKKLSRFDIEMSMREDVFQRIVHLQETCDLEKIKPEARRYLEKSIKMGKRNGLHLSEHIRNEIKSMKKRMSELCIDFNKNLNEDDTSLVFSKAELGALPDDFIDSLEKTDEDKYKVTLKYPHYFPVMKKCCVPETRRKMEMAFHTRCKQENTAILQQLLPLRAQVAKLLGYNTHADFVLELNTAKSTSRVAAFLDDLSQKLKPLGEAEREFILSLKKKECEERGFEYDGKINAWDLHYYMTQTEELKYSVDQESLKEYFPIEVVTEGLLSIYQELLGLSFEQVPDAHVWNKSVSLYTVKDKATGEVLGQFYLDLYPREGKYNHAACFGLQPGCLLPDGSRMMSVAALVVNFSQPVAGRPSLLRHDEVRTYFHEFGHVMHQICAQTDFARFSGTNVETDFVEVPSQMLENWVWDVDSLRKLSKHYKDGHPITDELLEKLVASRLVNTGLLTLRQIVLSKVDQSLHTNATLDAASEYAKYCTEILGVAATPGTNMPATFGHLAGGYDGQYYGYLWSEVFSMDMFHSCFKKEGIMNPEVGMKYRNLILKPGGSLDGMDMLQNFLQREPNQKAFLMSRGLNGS
Experimental: Rat recombinant neurolysin—N-terminal polyhistidine tagged recombinant rat neurolysin was produced in Escherichia coli using a plasmid construct in pBAD/His vector system (Invitrogen) kindly provided by Dr. David W. Rodgers (University of Kentucky) (32,33). Bacterial culture was carried out in Terrific Broth in 2 L Erlenmeyer flasks using an incubator shaker (1-2400, New Brunswick Scientific). Expression was induced by addition of arabinose (1 mM final concentration), the cells were pelleted 3 h after induction and stored at −80° C. freezer. Bacterial pellets were resuspended and lysed in phosphate buffer (20 mM NaH2PO4, 500 mM NaCl, 0.05% Tween-20, pH 8.0) containing 0.25 mg/ml lysozyme, 1 mM phenylmethylsulfonyl fluoride, 0.05 mg/ml DNAse and 0.02 mg/ml RNase, followed by brief sonication. After centrifugation (40,000×g, 20 min at 4° C.) the supernatant was applied to a Ni-NTA Superflow cartridge (Qiagen), followed by washing and elution of recombinant neurolysin with phosphate buffer containing 25 and 250 mM imidazole, respectively. The eluted protein was further purified by size exclusion chromatography using a TSK gel BioAssist G2SWxl column (Tosoh bioscience) in AKTA Purifier FPLC system (GE Healthcare). […] Specific activity of recombinant neurolysin was determined by an enzymatic assay described below.
All assays were initiated by addition of QFS (100 μl assay volume in 96-well plates), and each experimental sample was present in duplicate.
In all experiments, test compounds were incubated with neurolysin for 10 min at 37° C. before addition of the substrate to start the reaction. All test compounds were dissolved in DMSO at 10 to 50 mM stock concentrations.
Statistical Analyses—statistical analyses and curve fitting were conducted with GraphPad Prism 6.0 software. For each enzymatic reaction, slope of the line which represents the initial velocity (Vo) for the reaction progress curve was calculated using the liner regression model of the software (Vo=Slope=Δ fluorescent intensity of the reaction product/Δ time). EC50 values for the modulators were calculated by fitting initial velocity values for hydrolysis of QFS by neurolysin in the presence of varying concentrations of a modulator into a nonlinear regression model for the three-parameter log(stimulator) vs. response equation [Y=Bottom+(Top−Bottom)/(1+10^((Log EC50−X)))].

[2] = molecular target: T2, Neurolysin (Nln) (Rattus norvegicus, UniProt P42676); assay: Nln activation in isolated enzyme assay (A50, Amax); format: biochemical
T2 construct: polyhistidine (N); made in house; host or cells: Escherichia coli (pBAD/His vector), if the rat enzyme of b61 was used
T2 sequence (P42676 38-704): as above

[3] = 100% = normal enzyme turnover, 95% CI in parentheses

Compound: CC1CN(CCCN)C(C)CN1CCCN (centres unmarked) [Compound 14541]
% activity at 10 [1]: 97%
% activity at (100) [1]: 103%

Compound: CN1CCC(O)(c2ccccc2)C(CCC(=O)N2CCCC2)C1.Cl (centres unmarked) [Compound 15180]
% activity at 10 [1]: 102%
% activity at (100) [1]: 95%

Compound: O=C(O)C1C2C=CC(O2)C1C(=O)NCCCN1CCOCC1 (centres unmarked) [Compound 47096]
% activity at 10 [1]: 101%
% activity at (100) [1]: 111%

Compound: CC(NCCN1CCCC1)C(O)c1ccc(O)c(O)c1.Cl (centres unmarked) [Compound 48778]
% activity at 10 [1]: 89%
% activity at (100) [1]: 84%

Compound: COCN1CCC2N(COC)CCC3N(COC)CCC1N23 (centres unmarked) [Compound 82001]
% activity at 10 [1]: 105%
% activity at (100) [1]: 100%

Compound: O=P1(NCC2CCCO2)OCC2(CO1)COP(=O)(NCC1CCCO1)OC2 (centres unmarked) [Compound 88659]
% activity at 10 [1]: 100%
% activity at (100) [1]: 100%

Compound: NCC(=O)N1CCC[C@H]1C(=O)NCC(=O)NCC(=O)O [Compound 89624] (H-GPGG-OH)
% activity at 10 [1]: 102%
% activity at (100) [1]: 38%

Compound: CCOCCOCCN1CNc2nc(N)[nH]c(=O)c2C1 [Compound 92597]
% activity at 10 [1]: 105%
% activity at (100) [1]: 98%

Compound: CN(CCc1cnc2nc(N)[nH]c(=O)c2n1)c1ccc(C(=O)O)cc1 [Compound 121184]
% activity at 10 [1]: 77%
% activity at (100) [1]: 18%

Compound: CNCCc1cn(C2OC(CO)C(O)C(O)C2O)cn1 (centres unmarked) [Compound 131922]
% activity at 10 [1]: 96%
% activity at (100) [1]: 28%

Compound: N#CC(C#N)N=Nc1ccc(S(=O)(=O)N=C(N)N)cc1 [Compound 134119]
% activity at 10 [1]: 83%
% activity at (100) [1]: 41%

Compound: Clc1cc(Cl)c(C[N+]23CN4CN(CN(C4)C2)C3)cc1Cl.[Cl-] [Compound 155877]
% activity at 10 [1]: 82%
% activity at (100) [1]: 4%

Compound: CC1(C)SC(C(NC(=O)Cc2ccccc2)C(=O)O)NC1C(=O)O (centres unmarked) [Compound 163084]
% activity at 10 [1]: 103%
% activity at (100) [1]: 102%

Compound: S=C(NCN1CCNCC1)C(=S)NCN1CCNCC1 [Compound 203396]
% activity at 10 [1]: 102%
% activity at (100) [1]: 106%

Compound: COC1OC2COC(c3ccccc3)OC2C(N=Cc2ccccc2)C1O (centres unmarked) [Compound 210826]
% activity at 10 [1]: 101%
% activity at (100) [1]: 105%

Compound: COc1ccc2c(c1)c(=O)c(C(=O)O)cn2CCCOc1ccc([N+](=O)[O-])cc1 [Compound 211002]
% activity at 10 [1]: 104%
% activity at (100) [1]: 100%

Compound: Cc1cn(C(C=O)OC(C=O)CO)c(=O)[nH]c1=O (centres unmarked) [Compound 266752]
% activity at 10 [1]: 107%
% activity at (100) [1]: 97%

Compound: CCCCCCN(C)C12CN3CN(CN(C3)C1)C2 [Compound 281707]
% activity at 10 [1]: 109%
% activity at (100) [1]: 113%

Compound: CC1(C)CC(=O)C(CC(=O)c2ccccc2)=C(NN=C(N)N)C1 [Compound 282137]
% activity at 10 [1]: 106%
% activity at (100) [1]: 94%

Compound: NCCCNCCSP(=O)(O)O [Compound 296961]
% activity at 10 [1]: 106%
% activity at (100) [1]: 127%

Compound: NCC(SSC(CN)C(=O)O)C(=O)O (centres unmarked) [Compound 302851]
% activity at 10 [1]: 104%
% activity at (100) [1]: 80%

Compound: CC(C)CC(NC(=O)C(N)CC(=O)O)C(=O)O (stereo not drawn) [Compound 332636] (H-Asp-Leu-OH; configuration not given here)
% activity at 10 [1]: 103%
% activity at (100) [1]: 64%

Compound: CC(C)CC(NC(=O)C(C)N)C(=O)NCC(=O)O (centres unmarked) [Compound 333568]
% activity at 10 [1]: 106%
% activity at (100) [1]: 77%

Compound: Cl.NC(=O)C(Cc1ccc(O)cc1)NC(=O)C(N)Cc1c[nH]c2ccccc12 (stereo not drawn) [Compound 339919] (H-Trp-Tyr-NH2; configuration not given here)
% activity at 10 [1]: 100%
% activity at (100) [1]: 63%

Compound: CC(C)C(N)C(=O)NC(C(=O)NS(=O)(=O)c1ccc(N)cc1)C(C)C (centres unmarked) [Compound 340049]
% activity at 10 [1]: 94%
% activity at (100) [1]: 52%

Compound: Cl.NC(=O)C(Cc1ccc(O)c([N+](=O)[O-])c1)NC(=O)C(N)Cc1ccccc1 (centres unmarked) [Compound 343028] (H-Phe-[Tyr(3-NO2)]-NH2; configuration not given here)
% activity at 10 [1]: 98%
% activity at (100) [1]: 73%

Compound: CSCCC(N)[P+](=O)O (centres unmarked) [Compound 359097]
% activity at 10 [1]: 87%
% activity at (100) [1]: 92%

Compound: O=C(O)CNC(=O)CNC(=O)c1ccc2ccccc2n1 [Compound 400844]
% activity at 10 [1]: 104%
% activity at (100) [1]: 84%

Compound: CC(NCCN(C)C)C1CC2CCCCN2C1 (centres unmarked) [Compound 600947]
% activity at 10 [1]: 107%
% activity at (100) [1]: 105%

Compound: CCC1COc2nc(=O)c(C=NCCCN(C)C)c(N)n21 (centres unmarked) [Compound 608820]
% activity at 10 [1]: 102%
% activity at (100) [1]: 108%

Compound: O=C1CSC(c2cccnc2)N1CCN1C(=O)CSC1c1cccnc1 (centres unmarked) [Compound 615399]
% activity at 10 [1]: 108%
% activity at (100) [1]: 108%

Compound: NC1=C(O)/C(=N/NS(=O)(=O)c2ccccc2)C(c2ccc3c(c2)OCO3)O1 (centres unmarked) [Compound 640354]
% activity at 10 [1]: 79%
% activity at (100) [1]: 76%

Compound: COC(=O)CCN1CCN(CCO)CC1C (centres unmarked) [Compound 659264]
% activity at 10 [1]: 104%
% activity at (100) [1]: 107%

Amax (maximum % activation achieved) [2]: 305.2 (285.3 to 328) %
Compound: N[C@@H](Cc1c[nH]cn1)C(=O)NCc1ccc(C(F)(F)F)cc1 [DF-8-2]

EC50 ([2]; 95% CI in parentheses, read-out: A50 (concentration required to activate Nln by 50%)): 12.3 µM
Amax (maximum % activation achieved) [2, 3]: 262.3 (246.7 to 279.4) %
Compound: N[C@@H](Cc1c[nH]cn1)C(=O)NCc1ccc2ccccc2c1 [DF-9-2]

Amax (maximum % activation achieved) [2]: 334 (313.7 to 357.2) %
Compound: N[C@@H](Cc1c[nH]cn1)C(=O)NCc1ccccc1C(F)(F)F [DF-10-2]

Amax (maximum % activation achieved) [2]: 396.2 (384.5 to 408.5) %
Compound: N[C@H](Cc1c[nH]cn1)C(=O)NCCc1ccccc1C(F)(F)F [HP2CF3]

Amax (maximum % activation achieved) [2]: 502 (488.4 to 515.7) %
Compound: N[C@H](C(=O)N1CCC[C@H]1C(=O)O)c1c[nH]cn1 [His-Pro]

A50 (concentration required to activate Nln by 50%) ([2]; 95% CI in parentheses): Inactive
Amax (maximum % activation achieved) [2, 3]: Inactive
Compound: CC(C)(C)OC(=O)N[C@@H](Cc1c[nH]cn1)C(=O)N[C@H](Cc1ccccc1)C(=O)O [NK-61-2A] (Boc-His-[dF]-OH)

Compound: N[C@@H](Cc1c[nH]cn1)C(=O)NCCc1ccccc1 [NK-61-4A]
Amax (maximum % activation achieved) [2, 3]: 231 (216.2 to 248.9) %

A50 (concentration required to activate Nln by 50%) ([2]; 95% CI in parentheses): Inactive
Amax (maximum % activation achieved) [2, 3]: Inactive
Compound: CC(C)(C)OC(=O)N[C@@H](Cc1c[nH]cn1)C(=O)NCCc1cc2ccccc2[nH]1 [PT-1-172]

Compound: O=C(CCc1cnc[nH]1)NCCc1c[nH]c2ccccc12 [PT-1-177]
A50 (concentration required to activate Nln by 50%) ([2]; 95% CI in parentheses): Inactive
Amax (maximum % activation achieved) [2, 3]: Inactive

Compound: COc1cccc(CCNC(=O)[C@H](N)Cc2c[nH]cn2)c1 [SR15-1d]
Amax (maximum % activation achieved) [2, 3]: 255.3 (230.5 to 284.8) %

Amax (maximum % activation achieved) [2]: 324.9 (304 to 349) %
Compound: COc1ccccc1CNC(=O)[C@H](N)Cc1c[nH]cn1 [SR16-1d]

Amax (maximum % activation achieved) [2]: 323.7 (310.3 to 337.9) %
Compound: N[C@@H](Cc1c[nH]cn1)C(=O)NCCc1ccc2ccccc2c1 [SR18-1]

Amax (maximum % activation achieved) [2]: 339.8 (325.4 to 355.4) %
Compound: N[C@H](Cc1c[nH]cn1)C(=O)NCCc1ccc2ccccc2c1 [SR19-2d]

Amax (maximum % activation achieved) [2]: 428.8 (373 to 523.5) %
Compound: COc1ccc(CNC(=O)[C@@H](N)Cc2c[nH]cn2)cc1 [SR20-1d]

Amax (maximum % activation achieved) [2, 3]: 173 (158.5 to 194.1) %
Compound: N[C@@H](Cc1c[nH]cn1)C(=O)N1CCCC1 [SR-5-3d]

Amax (maximum % activation achieved) [2]: 259 (240.7 to 281) %
Compound: N[C@@H](Cc1c[nH]cn1)C(=O)NCCc1cc2ccccc2[nH]1 [SR-7-2d]

Amax (maximum % activation achieved) [2]: 132 (122.5 to 143.6) %
Compound: N[C@H](Cc1c[nH]cn1)C(=O)NCCc1cc2ccccc2[nH]1 [SR-8-2d]

Compound: N[C@@H](Cc1c[nH]cn1)C(=O)NCc1cccc2ccccc12 [SR-9-1d]
Amax (maximum % activation achieved) [2, 3]: 264 (256.3 to 272.6) %

Compound: N[C@H](Cc1c[nH]cn1)C(=O)NCc1cccc2ccccc12 [SR-10-1d]
Amax (maximum % activation achieved) [2, 3]: 343 (325.2 to 363.5) %

Source: patent publication US20210198647A1, “Enhancers of Neurolysin Activity” (Texas Tech University System, priority 2018, published 2021)
